In article PMC5175178, “Development of an in-vivo active reversible butyrylcholinesterase inhibitor” (Scientific Reports, 2016):

Tests used:
in vitro = conditions: human, human plasma
Experimental: (§1) The plasma metabolic stability and hepatic clearance were estimated by the substrate depletion method.
(§2) The incubation was performed in a 37 °C water bath for 2 h. An aliquot of the incubation mixture was transferred to acetonitrile at 0, 0.5, 1, 1.5 and 2 h, respectively. Samples were then mixed and centrifuged. Supernatants were used for HPLC-MS/MS analysis using selected reaction monitoring, and peak areas were recorded for each analyte. The HPLC conditions consisted of a binary LC pump with autosampler, a C18 column (2 × 20 mm), and gradient elution. The area of precursor compound remaining after each time points relative to the amount remaining at time zero, expressed as percent, is calculated. Subsequently, the half-life (t1/2) was estimated from the slope of the initial linear range of the logarithmic curve of the compound remaining (%) versus time, assuming first order kinetics.

Human plasma stability = conditions: human plasma, 1 µM, 37 °C
Experimental: as §1, §2

huBChE = target: T1, huBChE (Homo sapiens, UniProt P06276); assay: Kinetic studies for huBChE inhibition, stopped-flow progress curves; type: biochemical; conditions: hydrolysis by huBChE, pH 8
T1 construct: made in house
Experimental: This situation is referred to as tight binding inhibition. […] Of note, a high enzyme concentration was used in order to investigate the time-dependent inhibition and to reach the plateau of the reaction, which allowed precise quantification of the substrate concentration. […] The curves were analyzed simultaneously using the ENZO application[36].
Briefly, the time-course of yellow color formation was followed on a Bio-logic SFM-2000 stopped flow apparatus at 25 °C. […] The buffer solutions were injected into a mixing chamber using syringes. […] The progress curves obtained were analyzed simultaneously, using the ENZO application[36], which can derive and numerically solve a system of differential equations, and fit their coefficients. Several reaction mechanisms were tested.

ABCB1 = assay: Caco-2 monolayer bidirectional permeability assay; conditions: human; for Papp A→B at 120 min: Caco-2, apical-to-basolateral apparent permeability coefficient; for Papp B→A at 120 min: Caco-2, basolateral-to-apical apparent permeability coefficient
Experimental: (§3) They were grown on Transwell® culture inserts with a polycarbonate membrane (diameter, 12 mm; pore size, 0.4 µm). 50,000 cells/filter membranes were used for seeding and the medium was changed every two days. At day 18, transepithelial electrical resistance (TEER) was measured for each filter with Caco-2 cell monolayers. […] The samples were acidified by dilution with the same volume of 0.01M HCl before fluorescence measurements.
(§4) Ringer buffer with 10 mM d-glucose or 10 mM mannitol on apical and basolateral side of the tissue, respectively, was used as an incubation saline. […] The stock solutions were added either to the apical or to the basolateral compartment to obtain bidirectional permeability measurements. Six samples were withdrawn in 20 min intervals. Each time 300 µl was taken from the 1500 µL basolateral acceptor compartment and 100 µL from the 500 µL apical acceptor compartment. These volumes were immediately replaced by the appropriate fresh incubation saline. […] All apparent permeability coefficients were calculated as described previously^24.

Caco-2 cells = assay: Caco-2 monolayer bidirectional permeability assay; conditions: ABCB1 marker substrate, no inhibitor
Experimental: as §3, §4

[1] = test system: scopolamine-induced memory impairment in mice; assay: Passive avoidance task, scopolamine-induced memory impairment; type: in vivo, Albino Swiss (CD–1 Krf) mice
Experimental: The first behavioral test performed was the passive avoidance (PA) task, which allows the evaluation of the effects of a drug on fear-motivated contextual memory. […] In the passive avoidance task, better memory performance is determined according to a longer step-through latency in the retention trial (i.e., the testing phase) than in the acquisition trial (i.e., the conditioning phase). […] The mice had free access to food and water, and the ambient temperature and humidity of the room were kept constant throughout all of the tests. For the behavioral tasks, the mice were selected at random, and each group consisted of 8 to 10 mice dose^−1. The experiments were performed between 08:00 and 14:00. Immediately after these in-vivo assays, the animals were euthanized by cervical dislocation. […] All efforts were made to minimize the number of mice used and their suffering.
The effect of the test compounds on acquisition and retention in the passive avoidance task was conducted accordingly to a previously described method^30. For this purpose, the passive avoidance apparatus was used (Panlab Harvard Apparatus, Spain).
The testing phase was conducted 24 h after the acquisition phase. For the acquisition, each mouse was initially placed for 30 s in the light compartment (exploration period; guillotine gate closed). At the end of the exploration period the guillotine door between the light and the dark compartments was opened and the time elapsed before entering the black chamber was recorded. As soon as the mouse entered the dark compartment, the door automatically closed and an electrical shock (current intensity: 0.2 mA, duration: 2 s) was delivered through the grid floor.
For the retention trial (drug off), the mice were placed in the illuminated white compartment again, and the latency time between door opening and entry into the dark compartment was recorded for each mouse. […] Better memory performance was indicated by longer latency before entry into the black chamber in the test (retention) phase than in the conditioning (acquisition) phase.

[2] = test system: scopolamine-induced memory impairment in mice; assay: Two-day radial arm water maze task, scopolamine-induced memory impairment; type: in vivo, C57BL/6J mice
Experimental: In this task incorrect arm entries (i.e., errors) are counted. […] The mice had free access to food and water, and the ambient temperature and humidity of the room were kept constant throughout all of the tests. For the behavioral tasks, the mice were selected at random, and each group consisted of 8 to 10 mice dose^−1. The experiments were performed between 08:00 and 14:00. Immediately after these in-vivo assays, the animals were euthanized by cervical dislocation. […] All efforts were made to minimize the number of mice used and their suffering.
C57BL/6J mice were subjected to the radial arm water maze paradigm^34,35. The main part of the apparatus (Panlab Harvard Apparatus, Spain) consists of a 6-arm maze in a pool filled with water to approximately 10 cm from the top, to be high enough to cover the hidden platform by about 0.5 cm, but also low enough that the visible platform was not covered. The pool was regularly cleaned of any debris left by the mice. The temperature of the water was kept constant during testing (23 ±1 °C). The tester remained in the same position throughout the testing, thus providing an additional visual cue for the mice.
On day 1, 15 trials were run in five blocks of three. Each trial lasted up to 60 s. The start arm was varied for each trial, with the goal arm remaining constant for a given individual for both days^34,35. For the first 12 trials, the platform was alternately visible, then hidden, and then hidden for the last three trials. On day 2, the mice (without drug treatment on this day) were run in the same manner as on day 1, but the platform was hidden for all of the trials. As errors have been reported to be the most sensitive measure in this assay^34, the number of errors (i.e., incorrect arm entries made) was counted in a 60 s time-frame. Incorrect arm entries occurred when the mouse selected an arm that was not the goal arm. Entries into the goal arm were not counted as errors, even if the platform was not located. An entry was considered to occur when all four legs of the mice had entered the alley completely. […] If the platform was not located within 60 s, the mice were gently guided through the water by placing a hand behind the animal to direct its swimming direction toward the platform. […] After that, the mouse was gently removed from the platform and thoroughly dried using cellulose paper before placing it back into its home cage under a heat source (a heat lamp).
For the statistical analysis of the data obtained, to minimize the impact of individual trial variability, each mouse error for the finding of the platform for three consecutive trials were averaged, giving five data points (5 trial blocks): T1 (trials 1–3), T2 (trials 4–6), T3 (trials 7–9), T4 (trials 10–12) and T5 (trials 13–15), separately for each day of testing.

[3] = test system: scopolamine-induced memory impairment in mice; assay: Morris water maze task, scopolamine-induced memory impairment; conditions: for Distance in goal quadrant (% ±SEM) / Entries in zone NW (n ±SEM) / Latency time (s ±SEM) / Number of NW zone crossings (n ±SEM) / Time in target (NW) quadrant (s ±SEM) / Total distance covered (m ±SEM): probe trial day 7
Experimental: In this task the time taken to reach the hidden platform (i.e., the escape latency time), the distance travelled, and the mean speed of swimming are recorded for each experimental group. […] For the behavioral tasks, the mice were selected at random, and each group consisted of 8 to 10 mice dose^−1. The experiments were performed between 08:00 and 14:00. Immediately after these in-vivo assays, the animals were euthanized by cervical dislocation. […] All efforts were made to minimize the number of mice used and their suffering.
The Morris water maze is a circular, plastic, grey-painted pool (diameter, 120 cm; height, 60 cm), filled with water (up to about 48 cm below the edge, to prevent an animal from jumping out) that was maintained at 23 ±1 °C. The pool was divided into four equal quadrants (compass locations: NE, NW, SE, SW) by a computerized video tracking system (SMART, ver. 3.0; Panlab, Spain). An escape platform (diameter, 11 cm; height, 47 cm) at a fixed location (the center of the NW quadrant; i.e., the target quadrant). The escape platform was made of transparent Plexiglas and was immersed 1 cm under the surface of water; this was invisible to the swimming mouse. The maze was lighted with the intensity of 45 lx.
During the spatial acquisition trial (six consecutive days), the mice were assigned to training sessions (four training sessions a day; 4 h apart) in which the mice were trained to escape from the water by reaching the hidden platform, the location of which could be identified using distal extra-maze cues (A4-sized sheets of black laminated paper with colored geometric symbols) attached to the room walls to provide navigation points^31. Visual cues had different colors and dimensions, and were kept constant during the whole experiment^31,32. The whole experiment was conducted by an experimenter who remained always stationary in a constant location, thus serving as an additional distal cue for the swimming mice. […] The time taken to reach the hidden platform (escape latency time), distance travelled to reach the platform, and mean speed were recorded in each experimental group and analyzed.
On the seventh day (24 h after the last training) the platform was removed from the pool and a probe trial was performed (without drug treatment). Each animal was released from a different start point and was allowed to swim for 60 s. […] Latency time to the first crossing of the former platform location (target zone), number of crossings of the target zone, time spent in the target NW quadrant, total distance, distance spent in NW quadrant, entries into the NW quadrant, and mean speed were measured^31.

T1 sequence (P06276 29-602): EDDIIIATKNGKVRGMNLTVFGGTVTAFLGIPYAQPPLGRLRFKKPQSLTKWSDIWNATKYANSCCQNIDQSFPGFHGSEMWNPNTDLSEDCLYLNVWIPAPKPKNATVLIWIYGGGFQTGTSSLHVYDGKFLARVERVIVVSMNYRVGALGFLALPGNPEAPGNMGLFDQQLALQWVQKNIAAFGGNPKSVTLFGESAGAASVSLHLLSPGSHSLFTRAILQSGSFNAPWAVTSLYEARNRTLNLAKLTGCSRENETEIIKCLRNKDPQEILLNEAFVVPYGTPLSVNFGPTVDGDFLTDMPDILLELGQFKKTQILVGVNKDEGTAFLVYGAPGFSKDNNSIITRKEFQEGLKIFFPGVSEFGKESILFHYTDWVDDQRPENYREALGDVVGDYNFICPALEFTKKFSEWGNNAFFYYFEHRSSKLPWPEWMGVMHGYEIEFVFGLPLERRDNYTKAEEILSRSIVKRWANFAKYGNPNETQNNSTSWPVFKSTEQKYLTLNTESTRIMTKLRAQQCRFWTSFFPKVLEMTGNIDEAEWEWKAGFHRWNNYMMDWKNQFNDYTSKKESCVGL

SMILES: CCCOc1cc(N)ccc1C(=O)OCCN(CC)CC [Propoxycaine, reference compound]
- half-life at 1 µM (in vitro): 3.3 min
- Half-Life t1/2 (min) 2nd (Human plasma stability): 3.0 min
- Half-Life t1/2 (min) Mean (Human plasma stability): 3 min

SMILES: CCCC(=O)SCC[N+](C)(C)C.[I-] [BTCI, butyrylthiocholine iodide]
- kcat (s^-1) ± SD (huBChE): 852 ± 8 s⁻¹
- Km (huBChE; read-out: Km (µM) ± SD): 38.5 ± 0.3 µM

SMILES: CC(C)[N+](C)(CCOC(=O)C1c2ccccc2Oc2ccccc21)C(C)C [Propantheline, reference compound]
- half-life at 1 µM (in vitro): 17.9 min
- Half-Life t1/2 (min) 2nd (Human plasma stability): 18.0 min
- Half-Life t1/2 (min) Mean (Human plasma stability): 18 min

SMILES: COC(=O)c1ccccc1-c1c2ccc(=N)cc-2oc2cc(N)ccc12 [Rhodamine123]
- efflux ratio at 120 min (ABCB1; Caco-2): 2.5
- Papp A→B at 120 min (ABCB1; after inhibition with PSC833): 1 ×10⁻⁶ cm/s
- Papp A→B at 120 min (ABCB1; no inhibitor): 1.1 ×10⁻⁶ cm/s
- Papp B→A at 120 min (ABCB1; after inhibition with PSC833): 2.5 ×10⁻⁶ cm/s
- Papp B→A at 120 min (ABCB1; no inhibitor): 7.7 ×10⁻⁶ cm/s
- efflux ratio (Caco-2 cells): 7.3

SMILES: CCN(C)C(=O)Oc1cccc([C@H](C)N(C)C)c1 [Rivastigmine, rivastigmine]
- effect on step-through latency ([1]; 0.5 mg kg^−1 rivastigmine + scopolamine): not active
- step-through latency, retention trial ([1]; 1 mg kg^−1 rivastigmine + scopolamine): 85 s
- step-through latency, retention trial ([1]; 2.5 mg kg^−1 rivastigmine + scopolamine): 99 s
- effect in the RAWM task ([2]; scopolamine + 1 mg kg^−1): not effective
- errors at the end of the acquisition phase (day 1) ([2]; scopolamine + 2.5 mg kg^−1): < 1 error
- distance travelled to reach the platform ([3]; day 3, scopolamine + 1 mg kg^−1): 4.62 m
- distance travelled to reach the platform ([3]; day 3, scopolamine + 2.5 mg kg^−1): 3.64 m
- distance travelled to reach the platform ([3]; day 5, scopolamine + 1 mg kg^−1): 1.58 m
- distance travelled to reach the platform ([3]; day 5, scopolamine + 2.5 mg kg^−1): 1.74 m
- Distance in goal quadrant (% ±SEM) ([3]; scopolamine + 1 mg kg^–1): 58.6 ±4.4 F[3,33] = 3.307; p<0.05%
- Entries in zone NW (n ±SEM) ([3]; scopolamine + 1 mg kg^–1): 6.3 ±0.5 F[3,33] = 14.87; p <0.0001 n
- Latency time (s ±SEM) ([3]; scopolamine + 1 mg kg^–1): 2.1 ±0.9 F[3,33] = 0.7484; NS s
- Number of NW zone crossings (n ±SEM) ([3]; scopolamine + 1 mg kg^–1): 4.5 ±0.8 F[3,33] = 1.472; NS n
- Time in target (NW) quadrant (s ±SEM) ([3]; scopolamine + 1 mg kg^–1): 35.9 ±2.8 F[3.33] = 3.824; p <0.05 s
- Total distance covered (m ±SEM) ([3]; scopolamine + 1 mg kg^–1): 11.3 ±0.5 F[3,33] = 0.1719; NS m
- Distance in goal quadrant (% ±SEM) ([3]; scopolamine + 2.5 mg kg^–1): 54.0 ±4.4%
- Entries in zone NW (n ±SEM) ([3]; scopolamine + 2.5 mg kg^–1): 7.4 ±0.6 n
- Latency time (s ±SEM) ([3]; scopolamine + 2.5 mg kg^–1): 2.1 ± 1.0 s
- Number of NW zone crossings (n ±SEM) ([3]; scopolamine + 2.5 mg kg^–1): 3.8 ±0.8 n
- Time in target (NW) quadrant (s ±SEM) ([3]; scopolamine + 2.5 mg kg^–1): 33.5 ± 2.7 s
- Total distance covered (m ±SEM) ([3]; scopolamine + 2.5 mg kg^–1): 11.0 ±0.4 m
- mean speed of swimming ([3]; scopolamine + 1 mg kg^−1): 0.15 m s^−1
- mean speed of swimming ([3]; scopolamine + 2.5 mg kg^−1): 0.12 m s^−1
